In ChEMBL document CHEMBL1201862, “PubChem BioAssay data set” (2004):
Values joined by “and” are separate entries in the source; they are usually repeats but may differ in a detail not shown here. Equal values may be shown once. Active and inactive are the calls of the source.

Experiments:
Cytochrome P450 3A4 [1] = target: T1, Cytochrome P450 3A4 (Homo sapiens, UniProt P08684); conditions: Potency
[2] = target: T2, Apoptotic protease-activating factor 1 (Homo sapiens, UniProt O14727); format: functional
T2 sequence (O14727 whole entry): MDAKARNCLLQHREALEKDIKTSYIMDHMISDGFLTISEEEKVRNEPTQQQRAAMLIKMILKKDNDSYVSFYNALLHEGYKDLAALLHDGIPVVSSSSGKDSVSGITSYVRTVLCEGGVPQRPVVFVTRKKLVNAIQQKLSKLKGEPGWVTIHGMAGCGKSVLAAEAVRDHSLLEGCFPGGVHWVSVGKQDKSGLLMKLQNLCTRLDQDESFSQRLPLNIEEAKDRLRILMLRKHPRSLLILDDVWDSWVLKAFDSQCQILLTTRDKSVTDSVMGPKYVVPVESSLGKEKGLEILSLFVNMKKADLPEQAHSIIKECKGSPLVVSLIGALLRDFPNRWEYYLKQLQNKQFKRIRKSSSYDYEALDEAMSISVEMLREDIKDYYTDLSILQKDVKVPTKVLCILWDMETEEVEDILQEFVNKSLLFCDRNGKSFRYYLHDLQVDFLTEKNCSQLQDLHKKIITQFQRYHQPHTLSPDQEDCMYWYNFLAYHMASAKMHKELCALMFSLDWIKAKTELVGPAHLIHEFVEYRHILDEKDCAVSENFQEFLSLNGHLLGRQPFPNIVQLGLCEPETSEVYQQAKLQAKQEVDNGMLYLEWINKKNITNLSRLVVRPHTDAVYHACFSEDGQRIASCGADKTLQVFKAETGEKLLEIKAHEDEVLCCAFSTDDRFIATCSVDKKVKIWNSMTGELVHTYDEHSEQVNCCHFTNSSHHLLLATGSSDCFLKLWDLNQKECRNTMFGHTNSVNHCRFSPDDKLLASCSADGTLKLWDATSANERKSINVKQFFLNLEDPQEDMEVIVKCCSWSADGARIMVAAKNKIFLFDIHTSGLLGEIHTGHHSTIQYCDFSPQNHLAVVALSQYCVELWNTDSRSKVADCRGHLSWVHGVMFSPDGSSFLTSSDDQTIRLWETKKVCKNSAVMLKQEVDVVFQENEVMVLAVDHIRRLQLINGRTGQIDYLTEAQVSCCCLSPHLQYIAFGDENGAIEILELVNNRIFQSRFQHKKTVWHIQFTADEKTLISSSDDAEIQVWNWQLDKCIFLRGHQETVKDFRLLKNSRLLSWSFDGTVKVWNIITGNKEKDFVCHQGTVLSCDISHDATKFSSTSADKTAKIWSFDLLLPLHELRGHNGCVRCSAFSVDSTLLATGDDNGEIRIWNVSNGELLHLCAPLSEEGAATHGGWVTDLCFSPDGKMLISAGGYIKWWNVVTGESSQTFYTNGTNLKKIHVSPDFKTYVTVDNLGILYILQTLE

Protein skinhead-1 = target: T3, Protein skinhead-1 (Caenorhabditis elegans, UniProt P34707); format: functional
T3 sequence (P34707 whole entry): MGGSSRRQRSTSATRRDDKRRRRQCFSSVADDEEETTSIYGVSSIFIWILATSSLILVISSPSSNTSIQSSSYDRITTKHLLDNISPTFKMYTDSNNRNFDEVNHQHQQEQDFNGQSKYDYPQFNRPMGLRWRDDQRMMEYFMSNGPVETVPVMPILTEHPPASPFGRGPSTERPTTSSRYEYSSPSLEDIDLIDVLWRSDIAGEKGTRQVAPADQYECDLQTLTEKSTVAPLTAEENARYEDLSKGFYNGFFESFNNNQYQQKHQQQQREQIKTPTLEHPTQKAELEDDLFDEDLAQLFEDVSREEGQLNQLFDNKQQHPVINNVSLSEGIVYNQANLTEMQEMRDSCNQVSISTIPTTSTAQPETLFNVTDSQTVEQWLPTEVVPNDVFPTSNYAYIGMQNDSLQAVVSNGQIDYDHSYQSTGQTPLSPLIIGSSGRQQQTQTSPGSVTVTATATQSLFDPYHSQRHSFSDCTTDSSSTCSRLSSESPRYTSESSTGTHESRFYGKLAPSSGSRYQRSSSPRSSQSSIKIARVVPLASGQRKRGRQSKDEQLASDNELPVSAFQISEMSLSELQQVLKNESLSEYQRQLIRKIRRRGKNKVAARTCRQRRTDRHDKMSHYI

Nonstructural protein 1 = Nonstructural protein 1 (Influenza A virus, UniProt Q194T2); format: functional, Influenza A virus (A/California/07/2009(H1N1))
Cytochrome P450 2C9 [3] = target: T4, Cytochrome P450 2C9 (Homo sapiens, UniProt P11712)
Cytochrome P450 3A4 [4] = target: T1, Cytochrome P450 3A4
Cytochrome P450 2D6 = Cytochrome P450 2D6 (Homo sapiens, UniProt P10635);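 also: CYP2D6 member of a cytochrome P450 panel assay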
Vero = experiment: cells; format: functional, cell-based; conditions: Chlorocebus sabaeus
H9c2 = experiment: cells; format: functional, cell-based; conditions: Rattus norvegicus, H9c2, Myocardium;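 also: confirmatory concentration-response retest of ultra-high-throughput screening hits for modulation of myocardial damage; cell death induced by hydrogen peroxide oxidative stress; compound pretreatment for 60 min then peroxide exposure for 2 h; potency is for protecting the cells against peroxide damage rather than for killing them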
[5] = P. falciparum Dd2 growth inhibitors, dose response, SYBR Green, cherry-picked samples (AID 1159567); format: functional, cell-based
Paired box protein Pax-8 = Paired box protein Pax-8 (Homo sapiens, UniProt Q06710); experiment: inhibitors of PAX8-driven TPO luciferase reporter, dose response, RMG-I cells, cherry-pick (AID 687027); format: functional, cell-based;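 also: luciferase reporter driven by Pax8 target thyroperoxidase promoter measured by SteadyGlo luminescence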
[6] = HepG2 cell cytotoxicity, dose response, cytotoxicity control, cherry-picked samples (AID 1159577); format: functional, cell-based
[7] = inhibitors of HIV Env-driven cell fusion, dose response, cherry-pick (AID 652057); format: functional, cell-based
Cytochrome P450 2C9 [8] = target: T4, Cytochrome P450 2C9; remark: listed apart in the source
Cytochrome P450 1A2 = target: T5, Cytochrome P450 1A2 (Homo sapiens, UniProt P05177);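 also: PubChem cytochrome P450 panel assay, CYP1A2 panel member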
T5 sequence (P05177 whole entry): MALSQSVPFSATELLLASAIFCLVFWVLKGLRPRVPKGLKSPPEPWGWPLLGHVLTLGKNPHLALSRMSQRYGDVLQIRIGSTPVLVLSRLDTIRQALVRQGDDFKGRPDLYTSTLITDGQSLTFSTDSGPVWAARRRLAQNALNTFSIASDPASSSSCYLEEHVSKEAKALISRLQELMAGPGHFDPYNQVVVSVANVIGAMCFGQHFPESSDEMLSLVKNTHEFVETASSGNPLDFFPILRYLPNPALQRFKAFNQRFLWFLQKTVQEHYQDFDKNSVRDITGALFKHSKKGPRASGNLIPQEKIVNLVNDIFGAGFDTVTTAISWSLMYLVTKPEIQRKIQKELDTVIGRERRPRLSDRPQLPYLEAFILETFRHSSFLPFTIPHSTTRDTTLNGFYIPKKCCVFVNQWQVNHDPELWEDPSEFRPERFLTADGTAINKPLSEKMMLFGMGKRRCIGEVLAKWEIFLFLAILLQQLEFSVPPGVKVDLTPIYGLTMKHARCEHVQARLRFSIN

Nonstructural protein 1, sequence (Q194T2 whole entry): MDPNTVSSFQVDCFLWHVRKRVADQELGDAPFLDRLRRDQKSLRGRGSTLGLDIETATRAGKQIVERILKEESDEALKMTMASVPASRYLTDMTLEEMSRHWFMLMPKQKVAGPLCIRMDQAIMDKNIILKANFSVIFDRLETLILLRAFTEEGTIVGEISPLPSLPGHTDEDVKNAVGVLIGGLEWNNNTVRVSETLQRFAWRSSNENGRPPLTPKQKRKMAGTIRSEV
T4 sequence (P11712 whole entry): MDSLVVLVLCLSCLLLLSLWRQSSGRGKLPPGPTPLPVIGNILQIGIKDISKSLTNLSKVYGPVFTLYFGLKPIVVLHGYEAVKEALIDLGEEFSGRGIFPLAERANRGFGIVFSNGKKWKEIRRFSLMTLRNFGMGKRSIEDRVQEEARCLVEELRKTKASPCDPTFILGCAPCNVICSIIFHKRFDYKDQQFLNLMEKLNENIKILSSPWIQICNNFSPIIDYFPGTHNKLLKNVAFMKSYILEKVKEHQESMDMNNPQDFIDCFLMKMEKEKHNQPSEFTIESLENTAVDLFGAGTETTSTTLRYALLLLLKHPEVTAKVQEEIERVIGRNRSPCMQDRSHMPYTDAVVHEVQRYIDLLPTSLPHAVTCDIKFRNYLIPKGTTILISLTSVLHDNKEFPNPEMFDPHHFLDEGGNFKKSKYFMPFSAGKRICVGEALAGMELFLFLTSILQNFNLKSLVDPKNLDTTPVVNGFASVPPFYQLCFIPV
Cytochrome P450 2D6, sequence (P10635 whole entry): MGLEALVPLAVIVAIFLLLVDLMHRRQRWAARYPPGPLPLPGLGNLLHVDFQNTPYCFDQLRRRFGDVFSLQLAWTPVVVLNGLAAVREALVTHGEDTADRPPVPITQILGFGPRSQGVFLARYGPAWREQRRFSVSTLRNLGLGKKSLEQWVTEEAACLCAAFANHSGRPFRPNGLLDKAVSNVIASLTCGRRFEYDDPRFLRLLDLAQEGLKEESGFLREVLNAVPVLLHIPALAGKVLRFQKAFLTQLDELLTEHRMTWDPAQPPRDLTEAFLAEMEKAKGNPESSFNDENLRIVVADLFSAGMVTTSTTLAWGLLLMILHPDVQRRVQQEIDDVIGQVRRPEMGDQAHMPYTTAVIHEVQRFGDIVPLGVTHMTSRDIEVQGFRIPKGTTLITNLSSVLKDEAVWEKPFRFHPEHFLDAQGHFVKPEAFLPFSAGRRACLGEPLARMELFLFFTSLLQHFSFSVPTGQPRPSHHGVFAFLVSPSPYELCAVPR
T1 sequence (P08684 whole entry): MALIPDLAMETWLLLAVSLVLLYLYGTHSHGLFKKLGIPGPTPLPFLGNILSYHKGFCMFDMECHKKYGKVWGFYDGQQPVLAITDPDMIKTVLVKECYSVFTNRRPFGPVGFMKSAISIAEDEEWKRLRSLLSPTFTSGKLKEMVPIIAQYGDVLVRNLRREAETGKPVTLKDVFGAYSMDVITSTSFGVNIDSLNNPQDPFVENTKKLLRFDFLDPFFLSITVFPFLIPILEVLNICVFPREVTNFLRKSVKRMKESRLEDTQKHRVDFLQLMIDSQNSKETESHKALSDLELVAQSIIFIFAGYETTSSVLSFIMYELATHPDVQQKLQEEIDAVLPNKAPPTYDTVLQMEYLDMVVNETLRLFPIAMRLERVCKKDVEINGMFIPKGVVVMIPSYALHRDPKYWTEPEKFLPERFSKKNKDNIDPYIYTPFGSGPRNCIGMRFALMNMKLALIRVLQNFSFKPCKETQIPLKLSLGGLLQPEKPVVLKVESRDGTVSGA
Paired box protein Pax-8, sequence (Q06710 whole entry): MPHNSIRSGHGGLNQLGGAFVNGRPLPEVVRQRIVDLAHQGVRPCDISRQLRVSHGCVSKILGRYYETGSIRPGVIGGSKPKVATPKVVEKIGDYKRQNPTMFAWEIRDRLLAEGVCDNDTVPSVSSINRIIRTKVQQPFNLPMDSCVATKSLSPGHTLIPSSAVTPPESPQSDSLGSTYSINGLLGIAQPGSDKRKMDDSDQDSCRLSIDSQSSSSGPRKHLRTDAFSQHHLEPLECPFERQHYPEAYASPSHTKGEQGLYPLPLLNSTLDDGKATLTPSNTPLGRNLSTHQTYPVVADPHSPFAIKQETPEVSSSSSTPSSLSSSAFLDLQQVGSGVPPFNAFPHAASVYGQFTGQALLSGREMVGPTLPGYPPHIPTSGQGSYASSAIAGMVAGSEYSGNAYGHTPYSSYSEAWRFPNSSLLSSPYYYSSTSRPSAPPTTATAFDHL

With `N#Cc1ccc(C23CC4(C2)[C@H](CN(P(=O)(c2ccccc2)c2ccccc2)[C@@H]4c2ccccc2)C3c2ccc(Cl)nc2)cc1` (stereo partly specified) the AC50 (Cytochrome P450 3A4 [1]) was 2 µM (inconclusive).
With `C=C(C)Cc1c(C)c(C#N)c2nc3ccccc3n2c1O` the IC50 [2] was 38.6 µM (active).
For `CC1=NN(c2ccccc2)C(=O)/C1=C\C=C1/N(C)c2ccccc2C1(C)C`, the IC50 (Protein skinhead-1) was 21.9 µM (active) and the IC50 (Nonstructural protein 1) was 11.8 µM (active).
In the case of `C#C[C@]1(OC(C)=O)CCC2C3CCC4=CC(=O)CCC4C3CC[C@]21C` (stereo partly specified), the AC50 (Cytochrome P450 3A4 [1]) was 39.8 µM (inconclusive).
In the case of `COC(=O)[C@]1(C)C[C@H]1[C@H](NP(=O)(c1ccccc1)c1ccccc1)c1ccccc1`, the AC50 (Cytochrome P450 3A4 [1]) was 12.6 µM (inconclusive).
For `CC[C@@H](c1ccccc1)n1c(=O)n2n(c1=O)[C@H]1[C@H](O)[C@H]3O[C@@H]3/C(=N/OC/C=C(\C)CCC=C(C)C)[C@@H]1CC2`, the AC50 (Cytochrome P450 2C9 [3]) was “inconclusive” and the AC50 (Cytochrome P450 3A4 [4]) was 3.98 µM (inconclusive).
For `COc1ccc(C2COc3c(ccc(O)c3OC)C2)c(OC)c1O` (stereo unspecified), the AC50 (Cytochrome P450 3A4 [1]) was 25.1 µM (inconclusive).
With `COc1cc(OC)c(C(C)=O)c(O)c1C` the AC50 (Cytochrome P450 3A4 [1]) was 0.316 µM (inconclusive).
With `c1ccc(-c2cn(C[C@H]3CC[C@@H]([C@@H]4CC[C@H](Cn5cc(-c6ccccn6)nn5)O4)O3)nn2)nc1` the IC50 (Nonstructural protein 1) was 5.72 µM (active).
In the case of `CCC1=C2CC[C@H]3C(=O)N(C)C(=O)[C@H]3[C@H]2[C@@]2(C)C(=O)N(CC(=O)OC)C(=O)N2C1=O`, the AC50 (Cytochrome P450 3A4 [1]) was 25.1 µM (inconclusive).
For `CO[C@H]1COC(=O)C/C=C\[C@@H](C)COC(=O)[C@H]2CCCN2C(=O)C/C=C\[C@H]1C`, the AC50 (Cytochrome P450 2C9 [3]) was “inconclusive”.
For `CCCCN=C(S)NNC(=O)c1csc2c1CCC(C)C2` (stereo unspecified), the AC50 (Cytochrome P450 2C9 [3]) was “inconclusive”, the AC50 (Cytochrome P450 3A4 [4]) was 15.8 µM (inconclusive) and the AC50 (Cytochrome P450 2D6) was 22.4 µM (inconclusive).
In the case of `Cc1cc(NC(=O)c2ccc3nccnc3c2)ccc1Br`, the IC50 (Vero) was > 25 µM (active).
For `Cc1ccc(OCC(=O)N/N=C/c2cccc3cccnc23)cc1`, the IC50 (Nonstructural protein 1) was 25.6 µM (active) and the IC50 (H9c2) was 14.1 µM (active).
With `C[C@@H]1CN([C@@H](C)CO)C(=O)c2ccccc2-c2ccccc2CO[C@H]1CN(C)Cc1ccccc1C(F)(F)F` the AC50 [5] was 2.97 µM (active), the AC50 (Paired box protein Pax-8) was 12.3 µM (active) and the AC50 [6] was 7.72 µM (active).
For `C[C@H]1CN([C@@H](C)CO)C(=O)Cc2cc(NS(=O)(=O)c3ccccc3)ccc2O[C@@H]1CN(C)Cc1ccc(Cl)c(Cl)c1`, the AC50 [7] was 37.1 µM (active).
For `Cc1ccc(S(=O)(=O)N(C)C[C@H]2Oc3cc(C4=CCCC4)ccc3S(=O)(=O)N([C@H](C)CO)C[C@H]2C)cc1`, the AC50 [7] was 10.1 µM (active).
For `Cc1[nH]c2ccc(O)cc2c1CCN`, the AC50 (Cytochrome P450 2C9 [3]) was 39.8 µM (inconclusive), the AC50 (Cytochrome P450 2C9 [8]) was 39.8 µM (inconclusive) and the AC50 (Cytochrome P450 1A2) was 31.6 µM (inconclusive) and 20 µM (inconclusive). For the same compound, the AC50 (Cytochrome P450 2D6) was 20 µM (inconclusive) and 39.8 µM (inconclusive).
With `Cc1ccccc1-c1ccc([C@H]2[C@@H]3CN(Cc4cccnc4)C[C@H]2N3)cc1` the AC50 [5] was 4.95 µM (active) and the AC50 [6] was 24.4 µM (active).
With `Cc1ccccc1-c1ccc([C@@H]2[C@@H]3CN(Cc4cccnc4)C[C@H]2N3)cc1` the AC50 [5] was 1.19 µM (active) and the AC50 [6] was 9.78 µM (active).
With `N#Cc1cccc(-c2ccc([C@@H]3[C@@H]4CN(C(=O)Nc5ccc(C(F)(F)F)cc5)C[C@H]3N4)cc2)c1` the AC50 [5] was 4.72 µM (active) and the AC50 [6] was 10.5 µM (active).
For `Cc1cccc(-c2ccc([C@H]3[C@@H](CO)N4CCCCN(S(=O)(=O)c5cccc(C)c5)C[C@H]34)cc2)c1`, the AC50 [5] was 1.87 µM (active) and the AC50 [6] was 11.6 µM (active).
